Test results taken from US6214816A, “Heterocyclic compounds” (Novo Nordisk A/S, priority 1998, dated 2001).
Structures can show the parent of a compound that is named as a salt.

Test system: histamine induced paw oedema
Test: Histamine induced paw oedema
Type: in vivo, rat (male Sprague-Dawley)
Details: ip, intraperitoneally 15 minutes before the anaesthetics, paw swelling 20 minutes after histamine, rat
Description: Compounds of formula I may be used to treat all painful, hyperalgesic and/or inflammatory conditions in which C-fibres play a pathophysiological role by eliciting neurogenic pain or inflammation, i.e.: The rat histamine paw oedema test was performed essentially as described by Amann et al. (Europ. J. Pharmacol. 279, 227-231, 1995). In brief 250-300 g male Sprague-Dawley rats were anaesthetized with pentobarbital sodium, and placed on a 32 degree Celsius heated table. Ten minutes later histamine (50 micoliter, 3 mg/ml) was injected in the right hind paw and 20 minutes hereafter the paw swelling was determined by water plethysmography (Ugo Basile). Test compounds were administered intraperitoneally at 15 minutes before the anaesthetics.

## O=C(O)CCN1CCC(CN2c3ccccc3CCc3ccccc32)C1 (stereo not shown) [Example 1, 3-(3-(10,11-Dihydro-5H-dibenzo[b,f]azepin-5-ylmethyl)-pyrrolidin-1-yl)-propionic acid hydrochloride]
  inhibition at 1 mg/kg: 56%
